Reference: the supplement of paper PMC10307832

Tests used:
Assay in all cases: relative viability (nuclei count vs DMSO), 5 days (fraction); higher = more cells survive
[1] = compound: O=C(NCCCNc1nc(Nc2cccc(NC(=O)N3CCCC3)c2)ncc1I)c1cccs1 [BX 795] + CS(=O)(=O)CCNCc1ccc(-c2ccc3ncnc(Nc4ccc(OCc5cccc(F)c5)c(Cl)c4)c3c2)o1 [Lapatinib] (partner 2 µM)
Outline: (§1)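 Medians of duplicate plates are given as relative viability. That measure is the nuclei count in treated wells divided by the count in vehicle wells. Counts were taken on 4× images of lung cancer cell lines in 1536-well plates, 5 days after pin-tool dosing the day after seeding with one drug alone or a fixed anchor-drug dose plus five library-drug doses (not always all listed) in √10 steps.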

[2] = compound: O=C(NCCCNc1nc(Nc2cccc(NC(=O)N3CCCC3)c2)ncc1I)c1cccs1 [BX 795] + Cc1nc(NC(=O)N2CCC[C@H]2C(N)=O)sc1-c1ccnc(C(C)(C)C(F)(F)F)c1 [Alpelisib] (partner 2 µM)
Outline: as §1

[3] = compound: O=C(NCCCNc1nc(Nc2cccc(NC(=O)N3CCCC3)c2)ncc1I)c1cccs1 [BX 795] + Nc1ncn([C@H]2C[C@H](O)[C@@H](CO)O2)c(=O)n1 [Decitabine] (partner 2 µM)
Outline: as §1

[4] = compound: O=C(NCCCNc1nc(Nc2cccc(NC(=O)N3CCCC3)c2)ncc1I)c1cccs1 [BX 795] + COc1cc2c(Oc3ccc(NC(=O)C4(C(=O)Nc5ccc(F)cc5)CC4)cc3F)ccnc2cc1OCCCN1CCOCC1 [Foretinib] (partner 0.25 µM)
Outline: as §1

[5] = compound: O=C(NCCCNc1nc(Nc2cccc(NC(=O)N3CCCC3)c2)ncc1I)c1cccs1 [BX 795] + CC1(C)CCC(c2ccc(Cl)cc2)=C(CN2CCN(c3ccc(C(=O)NS(=O)(=O)c4ccc(N[C@H](CCN5CCOCC5)CSc5ccccc5)c(S(=O)(=O)C(F)(F)F)c4)cc3)CC2)C1 [Navitoclax] (partner 0.5 µM)
Outline: as §1

| Cell Line | relative viability ([1]; first compound 0.04 µM) | relative viability ([1]; first compound 0.1265 µM) | relative viability ([1]; first compound 0.4 µM) | relative viability ([1]; first compound 1.265 µM) | relative viability ([2]; first compound 0.04 µM) | relative viability ([2]; first compound 0.1265 µM) | relative viability ([2]; first compound 0.4 µM) | relative viability ([2]; first compound 1.265 µM) | relative viability ([3]; first compound 0.04 µM) | relative viability ([3]; first compound 0.1265 µM) | relative viability ([3]; first compound 0.4 µM) | relative viability ([3]; first compound 1.265 µM) | relative viability ([4]; first compound 0.04 µM) | relative viability ([4]; first compound 0.1265 µM) | relative viability ([4]; first compound 0.4 µM) | relative viability ([4]; first compound 1.265 µM) | relative viability ([5]; first compound 0.04 µM) | relative viability ([5]; first compound 0.1265 µM) | relative viability ([5]; first compound 0.4 µM) | relative viability ([5]; first compound 1.265 µM) |
| --- | --- | --- | --- | --- | --- | --- | --- | --- | --- | --- | --- | --- | --- | --- | --- | --- | --- | --- | --- | --- |
| NCI-H1734 | 0.993 | 1.15 | 0.79 | 0.801 | 0.699 | 0.658 | 0.708 | 0.424 | 0.582 | 0.613 | 0.545 | 0.504 | 0.836 | 0.982 | 0.83 | 0.456 | 0.882 | 0.945 | 0.828 | 0.618 |
| NCI-H1755 | 1.03 | 1.05 | 0.999 | 0.861 | 0.929 | 0.9 | 0.93 | 0.63 | 0.796 | 0.645 | 0.885 | 0.704 | 0.926 | 0.865 | 0.894 | 0.67 | 1.07 | 0.978 | 1.04 | 0.671 |
| NCI-H1793 | 0.534 | 0.682 | 0.875 | 0.785 | 0.675 | 0.775 | 0.647 | 0.613 | 0.589 | 0.443 | 0.674 | 0.374 | 0.887 | 0.663 | 0.834 | 0.266 | 0.575 | 0.362 | 0.39 | 0.272 |
| NCI-H1915 | 0.947 | 0.951 | 0.947 | 0.827 | 1.11 | 1.08 | 1.14 | 0.928 | 0.292 | 0.225 | 0.309 | 0.245 | 1.07 | 1.1 | 1.08 | 0.995 | 0.824 | 0.782 | 0.766 | 0.691 |
| NCI-H1944 | 0.903 | 0.781 | 0.879 | 0.642 | 0.959 | 0.806 | 0.893 | 0.754 | 0.471 | 0.497 | 0.534 | 0.408 | 0.996 | 0.888 | 1.06 | 0.802 | 1.14 | 1.11 | 1.07 | 0.953 |
| NCI-H1975 | 0.903 | 0.982 | 0.727 | 0.512 | 0.6 | 0.671 | 0.626 | 0.406 | 0.434 | 0.472 | 0.35 | 0.359 | 0.833 | 1.11 | 0.972 | 0.898 | 1.19 | 1.24 | 1.16 | 0.985 |
| NCI-H1993 | 0.848 | 0.786 | 0.79 | 0.658 | 0.583 | 0.655 | 0.641 | 0.689 | 0.65 | 0.602 | 0.719 | 0.652 | 0.804 | 0.961 | 0.73 | 0.665 | 0.868 | 0.857 | 0.846 | 0.614 |
| NCI-H2009 | 0.912 | 0.86 | 0.988 | 0.671 | 1.14 | 1.06 | 1.34 | 0.836 | 0.391 | 0.39 | 0.4 | 0.374 | 1.21 | 1.19 | 1.16 | 1.11 | 1.23 | 1.1 | 1.19 | 0.853 |
| NCI-H2023 | 0.538 | 0.749 | 0.32 | 0.522 | 0.543 | 0.575 | 0.45 | 0.352 | 0.241 | 0.238 | 0.21 | 0.199 | 0.722 | 0.912 | 0.427 | 0.551 | 0.933 | 1.08 | 0.36 | 0.645 |
| NCI-H2085 | 0.881 | 0.781 | 0.741 | 0.642 | 1.09 | 0.98 | 1.14 | 0.863 | 0.683 | 0.501 | 0.737 | 0.575 | 1.05 | 1.05 | 0.873 | 0.809 | 1.12 | 1.17 | 1.27 | 1.01 |
| NCI-H2087 | 1.24 | 1.05 | 1.08 | 0.975 | 1.08 | 1.18 | 1.29 | 0.752 | 0.387 | 0.347 | 0.369 | 0.143 | 1.06 | 1.13 | 1.24 | 0.623 | 0.901 | 1 | 1.25 | 0.801 |
| NCI-H2126 | 0.728 | 0.752 | 0.837 | 0.767 | 0.768 | 0.763 | 0.876 | 0.728 | 0.626 | 0.553 | 0.747 | 0.593 | 1.31 | 1.02 | 1.3 | 1.03 | 0.795 | 0.826 | 0.965 | 0.787 |
| NCI-H2170 | 0.26 | 0.28 | 0.262 | 0.289 | 0.859 | 0.92 | 0.864 | 0.751 | 0.542 | 0.47 | 0.48 | 0.443 | 0.979 | 1.02 | 1.05 | 0.998 | 0.674 | 0.62 | 0.659 | 0.53 |
| NCI-H2347 | 0.945 | 0.903 | 1.16 | 0.914 | 1.19 | 1 | 1.11 | 0.892 | 0.65 | 0.653 | 0.69 | 0.636 | 1.03 | 0.915 | 0.8 | 0.773 | 1.02 | 0.743 | 1.05 | 0.76 |
| NCI-H2405 | 1.21 | 1 | 0.792 | 0.733 | 0.785 | 0.735 | 0.372 | 0.626 | 0.869 | 0.742 | 0.693 | 0.722 | 1.08 | 1.06 | 1.02 | 0.935 | 0.827 | 0.848 | 0.588 | 0.7 |
